What was measured:
[1] = tested on: CYCLIN K; experiment: CYCLIN K nuclear protein level: immunofluorescence/high content analysis in CAL-120 cells; type: cell-based, human; details: 24 h, nuclear CCNK staining, read-out: CYCLIN K degradation IF, DC50-[mol/l] (median)
Method: In the context of the present invention, the term “DC50 Cyclin K” refers to the DC50 values obtained according to the assay described in this section (7) herein below, i.e. the DC50 values for the degradation of Cyclin K.
(§1) CAL-120 human breast cancer cells (DSMZ ACC 459) are seeded in 1536-well microtiter plates (800 cells per well) containing 50 nanoL of compounds in Dose-Response. Control wells received DMSO or Reference Example 1. Plates are then incubated for 24 h at 37° C. in an humidified incubator and fixed with 4% PFA for 10 min. Then immunofluorescence (IF) against CYCLIN K (ThermoFisher Scientific CCNK Antibody #PA5-85020, rabbit, 1:200 dilution) is performed using standard IF protocols. Cells are then stained with Hoechst 33342 (Life Technologies, H-1399, 0.1 microg/ml) and imaged on an automated confocal microscopy system (e.g. Perkin Elmer Opera Phenix). Nuclear and cytoplasmic intensity as well as the nuclear/cytoplasmic intensity ratio is determined by automated image analysis using custom generated scripts (MetaXpress). Data is then transferred to Genedata Screener software, normalized to DMSO and control and DC50 values (degrading concentration to achieve 50% reduction of nuclear CCNK staining intensity relative to controls) are reported.

[2] = tested on: BRCA1 mRNA expression in MDA-MB-231 cells; experiment: qRT-PCR assay: inhibition of BRCA1 mRNA expression in MDA-MB-231 cells; type: cell-based; details: Homo sapiens, 24 h exposure, normalised to GAPDH, read-out: RTqPCR-MDA-MB-231 IC50 [mol/l] BRCA1 (median)
Method: Tissue cultured human MDA-MB-231 human breast cancer cells were plated in 500 microL per well at 200,000 cells/well in a 24 well microtiter plate. After 24 h, the cells were exposed continuously for 24 h to test substances (substances were added with Tecan HP D300 Dispenser). RNA was prepared using Qiagen RNeasy MiniKit (#74106), RNA was quantified using a NanoDrop Equipment, and 600 nano gamms of RNA was converted to cDNA using a SuperScript VILO kit (Thermofisher #11755050) followed by qPCR amplification. BRCA1 and ATR gene expression was measured by RT-qPCR and normalised to GAPDH housekeeping gene expression. qPCR primer sets have been purchased from Thermo Fisher Scientific/Applied Biosystems: BRCA1, #Hs 01556193; ATR, #Hs 00992123; GAPDH, #Hs 03929097.

[3] = tested on: CAL-120 human breast adenocarcinoma cells; experiment: Proliferation assay CAL-120 (crystal violet); type: cell-based; details: 96 h, CAL-120 cells, 4 days, read-out: Prolif-CAL-120_ IC50-[mol/l] (median)
Method: (§2) Human tumour cells were originally obtained from the American Type Culture Collection (ATCC), or from the Deutsche Sammlung von Mikroorganismen und Zellkulturen (DSMZ, German Collection of Microorganisms and Cell Cultures). Cultivated tumour cells (CAL-120, human breast adenocarcinoma cells, DSMZ ACC-459; MDA-MB-231, human breast cancer cells, ATCC HTB-26) were plated at a density of 4,000 cells/well in a 96-well multititer plate in 200 microL of their respective growth medium supplemented 10% fetal calf serum. After 24 hours, the cells of one plate (zero-point plate) were stained with crystal violet (see below), while the medium of the other plates was supplemented with the test substances in various concentrations (0 micromol/L, as well as in the range of 0.01-10 micromol/L; the final concentration of the solvent dimethyl sulfoxide was adjusted to 0.1%) using a Tecan HP D300 Digital Dispenser. The cells were incubated for 4 days in the presence of test substances. Cell proliferation was determined by staining the cells with crystal violet: the cells were fixed by adding 20 microL/measuring point of an 11% glutaric aldehyde solution for 15 minutes at room temperature. After three washing cycles of the fixed cells with water, the plates were dried at room temperature. The cells were stained by adding 100 microL/measuring point of a 0.1% crystal violet solution (pH 3.0). After three washing cycles of the stained cells with water, the plates were dried at room temperature. The dye was dissolved by adding 100 microL/measuring point of a 10% acetic acid solution. The extinction was determined by photometry at a wavelength of 595 nm. The change of cell number, in percent, was calculated by normalization of the measured values to the extinction values of the zero-point plate (=0%) and the extinction of the untreated (0 μM) cells (=100%). The IC50 values (inhibitory concentration at 50% of maximal effect) were determined by means of a 4 parameter fit.

[4] = target: T1, CDK12 (Homo sapiens, UniProt Q9NYV4); experiment: CDK12 nuclear protein level: immunofluorescence/high content analysis in CAL-120 cells; type: cell-based; details: for DC50: CAL-120 cells, 24 h, nuclear CDK12 staining, read-out: CDK12 degradation IF DC50-[mol/l] (median); for (IC50 CDK12 high ATP) to (Degradation DC50 CDK12) ratio: IC50 CDK12 hATP (Table 2) divided by DC50 CDK12 IF (Table 8)
T1 construct: endogenous in cells; host or cells: CAL-120 human breast cancer cells (DSMZ ACC 459)
T1 sequence (Q9NYV4 whole entry): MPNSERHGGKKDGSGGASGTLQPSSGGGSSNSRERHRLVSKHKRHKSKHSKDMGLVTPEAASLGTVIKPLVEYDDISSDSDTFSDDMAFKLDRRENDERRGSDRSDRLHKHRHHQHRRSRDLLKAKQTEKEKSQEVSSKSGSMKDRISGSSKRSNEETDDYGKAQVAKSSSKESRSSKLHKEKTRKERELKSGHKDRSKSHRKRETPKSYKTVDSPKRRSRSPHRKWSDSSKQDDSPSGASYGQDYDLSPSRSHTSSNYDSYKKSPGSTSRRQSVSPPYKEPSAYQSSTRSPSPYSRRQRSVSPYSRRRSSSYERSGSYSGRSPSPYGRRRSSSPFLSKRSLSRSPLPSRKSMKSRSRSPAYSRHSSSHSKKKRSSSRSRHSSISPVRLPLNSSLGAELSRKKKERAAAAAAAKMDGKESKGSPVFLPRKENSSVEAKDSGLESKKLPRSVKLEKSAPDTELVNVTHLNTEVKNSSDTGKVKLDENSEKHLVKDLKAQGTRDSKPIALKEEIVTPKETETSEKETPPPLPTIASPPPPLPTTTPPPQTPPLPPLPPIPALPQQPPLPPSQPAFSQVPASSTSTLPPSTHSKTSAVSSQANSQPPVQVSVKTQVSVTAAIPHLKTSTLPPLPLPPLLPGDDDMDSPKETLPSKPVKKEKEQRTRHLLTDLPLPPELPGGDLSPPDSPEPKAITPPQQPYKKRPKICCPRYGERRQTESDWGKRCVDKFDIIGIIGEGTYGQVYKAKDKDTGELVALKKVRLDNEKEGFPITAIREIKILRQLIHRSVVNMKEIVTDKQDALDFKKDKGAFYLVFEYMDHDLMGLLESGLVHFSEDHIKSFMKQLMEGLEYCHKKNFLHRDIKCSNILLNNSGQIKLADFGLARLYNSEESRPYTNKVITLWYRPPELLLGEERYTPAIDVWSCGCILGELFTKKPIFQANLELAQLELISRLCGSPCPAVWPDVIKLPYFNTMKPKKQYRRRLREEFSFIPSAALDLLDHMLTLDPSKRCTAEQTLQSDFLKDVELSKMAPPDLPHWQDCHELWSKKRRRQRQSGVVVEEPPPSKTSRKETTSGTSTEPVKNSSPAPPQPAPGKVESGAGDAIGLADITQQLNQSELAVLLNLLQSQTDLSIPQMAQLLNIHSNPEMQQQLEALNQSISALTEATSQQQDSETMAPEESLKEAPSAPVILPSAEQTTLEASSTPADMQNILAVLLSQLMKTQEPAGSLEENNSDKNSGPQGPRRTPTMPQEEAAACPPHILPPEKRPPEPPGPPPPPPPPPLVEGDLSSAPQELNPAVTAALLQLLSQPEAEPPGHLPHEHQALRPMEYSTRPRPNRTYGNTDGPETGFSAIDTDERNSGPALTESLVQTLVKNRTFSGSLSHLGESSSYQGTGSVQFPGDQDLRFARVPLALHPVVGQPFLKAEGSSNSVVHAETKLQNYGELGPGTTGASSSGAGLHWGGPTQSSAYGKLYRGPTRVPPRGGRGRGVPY
T1 sequence (O75909 whole entry partner): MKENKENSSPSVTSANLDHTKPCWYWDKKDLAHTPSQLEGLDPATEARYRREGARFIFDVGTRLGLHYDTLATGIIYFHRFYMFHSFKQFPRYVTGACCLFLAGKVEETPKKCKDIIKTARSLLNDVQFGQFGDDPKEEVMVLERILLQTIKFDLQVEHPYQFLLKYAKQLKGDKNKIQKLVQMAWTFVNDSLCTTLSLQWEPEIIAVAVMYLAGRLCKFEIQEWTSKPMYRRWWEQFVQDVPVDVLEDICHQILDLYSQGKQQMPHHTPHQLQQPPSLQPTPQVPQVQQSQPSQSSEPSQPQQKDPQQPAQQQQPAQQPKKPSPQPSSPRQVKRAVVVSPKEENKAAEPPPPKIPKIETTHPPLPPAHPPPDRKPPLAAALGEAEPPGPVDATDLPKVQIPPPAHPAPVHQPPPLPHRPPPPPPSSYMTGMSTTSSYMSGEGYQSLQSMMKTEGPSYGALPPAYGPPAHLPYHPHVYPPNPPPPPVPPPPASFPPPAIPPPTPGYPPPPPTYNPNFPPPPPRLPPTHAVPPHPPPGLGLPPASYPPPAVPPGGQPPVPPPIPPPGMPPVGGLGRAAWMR
Method: In the context of the present invention, the term “DC50 CDK12” refers to the DC50 values obtained according to the assay described in this section (6) herein below, i.e. the DC50 values for the degradation of CDK12.
as §1, with “CDK12 (CellSignalling CDK12” for “CYCLIN K (ThermoFisher Scientific CCNK”, “#11973,” for “#PA5-85020,”, “1:100” for “1:200”, “CDK12” for “CCNK”

[5] = tested on: MDA-MB-231 human breast cancer cells; experiment: Proliferation assay MDA-MB-231 (crystal violet); type: cell-based; details: 96 h, MDA-MB-231 cells, 4 days, read-out: Prolif-MDA MB231 IC50-[mol/l] (median)
Method: as §2

| Compound | DC50 [1] [nM] | IC50 [3] [nM] | DC50 [4] [nM] | (IC50 CDK12 high ATP) to (Degradation DC50 CDK12) ratio [4] | IC50 [5] [nM] | IC50 [2] [nM] |
| --- | --- | --- | --- | --- | --- | --- |
| Fc1ccc2[nH]c(CNc3nc(N4CCOCC4)nn4c(C(F)(F)F)cnc34)nc2c1F [Example 27, N-[(4,5-difluoro-1H-benzimidazol-2-yl)methyl]-2-(morpholin-4-yl)-7-(trifluoromethyl)imidazo[2,1-f][1,2,4]triazin-4-amine] | 3.45 | 2.01 | 1.1 | 10 | 1.91 | 1.05 |
| CN1CCN(c2nc(NCc3nc4c(F)c(F)ccc4[nH]3)c3ncc(C(F)(F)F)n3n2)CC1 [Example 28, N-[(4,5-difluoro-1H-benzimidazol-2-yl)methyl]-2-(4-methylpiperazin-1-yl)-7-(trifluoromethyl)imidazo[2,1-f][1,2,4]triazin-4-amine] | 0.363 | 1.99 | 0.58 | 2887 | 2.83 | 0.242 |
| C[C@@H]1CN(c2nc(NCc3nc4c(F)c(F)ccc4[nH]3)c3ncc(C(F)(F)F)n3n2)C[C@H](C)N1 [Example 29, N-[(4,5-difluoro-1H-benzimidazol-2-yl)methyl]-2-[rel-(3R,5S)-3,5-dimethylpiperazin-1-yl]-7-(trifluoromethyl)imidazo[2,1-f][1,2,4]triazin-4-amine] | 0.267 | 0.536 | 0.229 | 177 | 0.839 | 1.05 |

Continued, in another order:

| DC50 [1] [nM] | IC50 [3] [nM] | DC50 [4] [nM] | (IC50 CDK12 high ATP) to (Degradation DC50 CDK12) ratio [4] | IC50 [5] [nM] | Compound | IC50 [2] [nM] |
| --- | --- | --- | --- | --- | --- | --- |
| 1.66 | 12.3 | 3.55 | 3050 | 13.2 | CN1CCN(c2nc(NCc3nc4ccccc4[nH]3)c3ncc(C(F)(F)F)n3n2)CC1 [Example 25, N-[(1H-benzimidazol-2-yl)methyl]-2-(4-methylpiperazin-1-yl)-7-(trifluoromethyl)imidazo[2,1-f][1,2,4]triazin-4-amine] | 8.65 |
| 0.552 | 7.11 | 4.79 | 36 | 7.21 | FC(F)(F)c1cnc2c(NCc3nc4ccccc4[nH]3)nc(N3CCOCC3)nn12 [Example 26, N-[(1H-benzimidazol-2-yl)methyl]-2-(morpholin-4-yl)-7-(trifluoromethyl)imidazo[2,1-f][1,2,4]triazin-4-amine] | 3.64 |
